Tests used:
[1] = test system: P. acnes; test: Propionibacterium acnes growth inhibition (absorbance at 600 nm); assay type: cell-based
Description: A streak plate isolation technique was performed to isolate a single homogenous colony of P. acnes. A pinch of one colony was inoculated from agar plate into U-shape falcon tube containing 4 ml of broth media. Cultures were incubated at 37° C. in reduced oxygen-conditions for 72 hours. The cultures were then diluted and grown to mid-log phase (O.D. 0.5; 600 nm) for 3 hr.
The bacteria were incubated with the test components (cannabidiol and/or extract of C. asiatica) at different concentrations in triplicate at a final volume of 200 μl in an N-pre-flushed U shape 96-well plates for 3 hr. An additional blank control group was included (media w/o bacteria). Also, a negative (bacteria without test samples) control groups was included in the assay. In addition, combinations of the these components were tested (see Table 2).
The absorbance was recorded at 600 nm. The absorbance of the blank control was subtracted from all measurements. The change in bacterial number in response to increasing test sample concentrations was plotted.

[2] = test system: IL-1β secretion by U937 cells; test: Inhibition of secretion of IL-1β by lipopolysaccharide-stimulated U937 cells (ELISA); assay type: cell-based
Description: (§1) U937 cells, were thawed and treated according to the manufacturer's instructions. The cultures were incubated for recovery at 37° C. with 5% CO2 until 70-80% confluency was reached (visual estimation). Then, approx. 0.3×10^6 ¢/mL (determined by counting) were seeded in 96 well plates containing 200 μL/well of complete growth medium. The cells were incubated at 37° C. with 5% CO2 until 60% confluency was reached (visual estimation, typically—after 48 hr).
(§2) After the cells had reached the required confluency, the medium was replaced with pre-prepared growth medium supplemented with 1 μg/mL of lipopolysaccharides, and the test components were added, at a final volume of 200 μL/well. The following control groups were also added: Naïve cells, vehicle control, stimulation control, stimulation vehicle control. A proper blank control was subtracted from the measurements.
(§3) The cells were incubated for 24 hr. at 37° C. with 5% CO2. After the incubation, the conditioned medium of the different treatment groups was collected under standardized conditions and centrifuged at 250×g for 5 min to remove particulates. Clear supernatants were frozen at −70° C. until cytokines analyses. The secretion levels of IL-1β and TNFα (a major inflammatory marker) were quantified by commercial ELISA.

[3] = test system: human sebocytes; conditions: cited from earlier work
[4] = test system: PGE2 secretion by RAW 264.7 cells; test: Secretion of PGE2 by LPS-stimulated RAW 264.7 cells; assay type: cell-based
Description: RAW 264.7 cells (approx. 2.5×10^5 ¢/ml, by counting) were seeded in 96 well plates containing 170 μl/well of complete growth medium. The cells were incubated at 37° C. with 5% CO2 for 24 hr. […] In addition, naïve cells, vehicle-treated cells, Stimulated Control, and Stimulated Vehicle Control served as negative controls. Dexamethasone served as a positive control for anti-inflammatory assay. A Blank control group was included in the assay.
The spent media from all test groups were collected under standardized conditions and centrifuged at 250 g for 5 min to remove particulates. Clear supernatants were frozen at −70° C. until analysis. The secretion levels of PGE2 (an important inflammatory marker) were determined.

[5] = test system: TNFα secretion by U937 cells; test: Inhibition of secretion of TNFα by lipopolysaccharide-stimulated U937 cells (ELISA); assay type: cell-based
Description: as §1, §2, §3

[6] = Homo sapiens, U-937, each component present at 10 μg/ml, 1 μg/mL lipopolysaccharides, 24 hr
[7] = cultured human sebocytes and human skin organ culture

C=C(C)[C@@H]1CCC(C)=C[C@H]1c1c(O)cc(CCCCC)cc1O [Cannabidiol, cannabidiol]
inhibition at 1.25 µg/mL ([1]; Cutibacterium acnes, Sample 1: cannabidiol 1.25 μg/ml, C. asiatica 0, 3 hr): -10.9%
inhibition at 2.5 µg/mL ([1]; Cutibacterium acnes, Sample 2: cannabidiol 2.5 μg/ml, C. asiatica 0, 3 hr): 5.7%
effect on growth of P. acnes (in words) ([1]; summary of Table 2): neither cannabidiol nor extract of C. asiatica significantly inhibits growth
inhibition at 10 µg/mL [2, 6]: 28.4%
effect on secretion of IL-1β (in words) ([2]; summary of Table 3): attenuates
effect on lipogenic actions of arachidonic acid, linoleic acid + testosterone (in words) [3, 7]: inhibited the lipogenic actions
effect on sebocyte proliferation (in words) [3, 7]: suppressed sebocyte proliferation
anti-inflammatory action (in words) ([3]; human sebocytes): exerted complex anti-inflammatory actions
inhibition at 1.25 µg/mL ([4]; Mus musculus, RAW264.7, Sample 1: cannabidiol 1.25 μg/ml alone, RAW 264.7, LPS 12.5 ng/ml): 1.9%
inhibition at 2.5 µg/mL ([4]; Mus musculus, RAW264.7, Sample 2: cannabidiol 2.5 μg/ml alone, RAW 264.7, LPS 12.5 ng/ml): 24%
effect on secretion of PGE2 (in words) ([4]; at a concentration of 2.5 μg/ml): attenuates
inhibition at 10 µg/mL [5, 6]: 48%
effect on secretion of TNFα (in words) ([5]; summary of Table 3): attenuates
